Earlier results on seven molecules are cited in PMC8473701.

This series is described as follows: not told.
Take `CCC(C)C`: the “log partition aniline / water” value is listed as 2.880 log10 and the “log partition hexadecane / water” value is recorded as 3.76 log10.
Take `CC(C)C`: the “log partition aniline / water” value is listed as 2.488 log10 and the “log partition hexadecane / water” value is listed as 3.11 log10.
For the molecule `ClCCl`, the “log partition 1-octanol / water” value is listed as 1.25 log10, the “log partition aniline / water” value was 1.562 log10, the “log partition chloroform / water” value was 2.00 log10 and the “log partition hexadecane / water” value is 1.06 log10. Moreover, the “log partition octanol / water” value is 1.25 log10.
Turning to `CCCl`, the “log partition aniline / water” value is recorded as 1.481 log10 and the “log partition hexadecane / water” value was 1.22 log10.
For the molecule `CC1CCCC1`, the “log partition 1-octanol / water” value was 3.37 log10 and the “log partition hexadecane / water” value is 3.99 log10.
Take `Cc1cnccn1`: the “log partition chloroform / water” value was 1.04 log10, the “log partition hexadecane / water” value is -0.79 log10 and the “log partition octanol / water” value is 0.23 log10.
As for `COc1cccc(O)c1`, the “log partition chloroform / water” value was 0.77 log10, the “log partition hexadecane / water” value was -1.08 log10 and the “log partition octanol / water” value is on record as 1.58 log10.
